Values after ≈ are worked out from the molar mass of the structure shown.
Columns and labels:
Assay in all cases: antimicrobial activity, broth dilution method
Type in all cases: cell-based
[1] = system: Staphylococcus aureus MS-8710; settings: for MIC: Staphylococcus aureus, MS8710, Staphylococcus aureus MS-8710, drug-resistant clinical isolate, read-out: minimum inhibitory concentration (MIC); for minimum inhibitory concentration (MIC): Staphylococcus aureus MS-8710, drug-resistant clinical isolate
Procedure: (§1) Antimicrobial activity of the new antibiotics according to the present invention was measured on various pathogenic microorganisms by the broth dilution mehtod. Tab. […] The new antibiotics show a similar antimicrobial spectrum to that of tylosin as shown in Tab. 4. All the compounds have an excellent antimicrobial activity mainly on gram-positive bacteria. […] Test microorganisms with an asterisk mark (*) in Tab. 4 are all drug-resistant strains that were clinically isolated. More in detail, Staphylococcus aureus MS-8710 is resistant to tylosin, penicillin, tetracycline, erythromycin and leucomycin. Staphylococcus aureus MS-9931 is resistant to tylosin, penicillin, erythromycin, tetracycline, leucomycin, spiramycin and josamycin. And also Streptococcus piogenes is resistant to tylosin, erythromycin, oleandomycin and leucomycin.

[2] = system: Staphylococcus aureus MS-9931; settings: Staphylococcus aureus MS-9931, drug-resistant clinical isolate; for MIC: MS9931, read-out: minimum inhibitory concentration (MIC)
Procedure: as §1

[3] = system: Staphylococcus aureus FDA-209P; settings: Staphylococcus aureus FDA-209P, broth dilution; for MIC: Staphylococcus aureus, FDA209P, read-out: minimum inhibitory concentration (MIC)
Procedure: as §1

[4] = system: Staphylococcus aureus SMITH; settings: Staphylococcus aureus SMITH, broth dilution; for MIC: Staphylococcus aureus, read-out: minimum inhibitory concentration (MIC)
Procedure: as §1

[5] = system: Staphylococcus aureus MS-9937; settings: Staphylococcus aureus MS-9937, drug-resistant clinical isolate; for MIC: MS9937, read-out: minimum inhibitory concentration (MIC)
Procedure: as §1

[6] = system: Streptococcus pyogenes MH-771; settings: for MIC: Streptococcus pyogenes, MH771, Streptococcus pyogenes MH-771, drug-resistant clinical isolate, read-out: minimum inhibitory concentration (MIC); for minimum inhibitory concentration (MIC): Streptococcus pyogenes MH-771, drug-resistant clinical isolate
Procedure: as §1

[7] = system: Bacillus cereus ATCC 9634; settings: broth dilution; for MIC: Bacillus cereus, ATCC9634, Bacillus cereus ATCC 9634, read-out: minimum inhibitory concentration (MIC); for minimum inhibitory concentration (MIC): Bacillus cereus ATCC 9634
Procedure: as §1

[8] = system: Sarcina lutea ATCC 9341; settings: for MIC: Micrococcus luteus, ATCC9341, Sarcina lutea ATCC 9341, read-out: minimum inhibitory concentration (MIC); for minimum inhibitory concentration (MIC): Sarcina lutea ATCC 9341
Procedure: as §1

Molecule | MIC [1] [µg/mL] | MIC [2] [µg/mL] | MIC [3] [µg/mL] | MIC [4] [µg/mL] | MIC [5] [µg/mL] | MIC [6] [µg/mL] | MIC [7] [µg/mL] | MIC [8] [µg/mL] | minimum inhibitory concentration (MIC) [1] [µg/mL] | minimum inhibitory concentration (MIC) [2] [µg/mL] | minimum inhibitory concentration (MIC) [3] [µg/mL] | minimum inhibitory concentration (MIC) [4] [µg/mL] | minimum inhibitory concentration (MIC) [5] [µg/mL] | minimum inhibitory concentration (MIC) [6] [µg/mL] | minimum inhibitory concentration (MIC) [7] [µg/mL] | minimum inhibitory concentration (MIC) [8] [µg/mL]
CCC1OC(=O)CC(OC(C)=O)C(C)C(OC2OC(C)C(OC3CC(C)(O)C(OC(=O)C(OC(C)=O)c4ccccc4)C(C)O3)C(N(C)C)C2O)C(CC=O)CC(C)C(=O)C=CC(C)=CC1COC1OC(C)C(O)C(OC)C1OC [Compound 19, 3-acetyl-4"-D-(α-acetoxyphenylacetyl)tylosin] | 100 (≈ 88.2 µM) | 100 (≈ 88.2 µM) | 1.56 (≈ 1.38 µM) | 0.78 (≈ 0.688 µM) | 100 (≈ 88.2 µM) | 25 (≈ 22 µM) | 0.78 (≈ 0.688 µM) | 0.78 (≈ 0.688 µM) |  |  |  |  |  |  |  | 
CCC(CC)C(=O)OC1C(C)OC(OC2C(C)OC(OC3C(CC=O)CC(C)C(=O)C=CC(C)=CC(COC4OC(C)C(O)C(OC)C4OC)C(CC)OC(=O)CC(OC(C)=O)C3C)C(O)C2N(C)C)CC1(C)O (stereo not drawn) [Compound 13, 3-acetyl-4"-α-ethyl-n-butyryltylosin] | 25 (≈ 23.7 µM) | 25 (≈ 23.7 µM) | 0.39 (≈ 0.369 µM) | 0.78 (≈ 0.738 µM) | 25 (≈ 23.7 µM) | 12.5 (≈ 11.8 µM) | 0.78 (≈ 0.738 µM) | 0.19 (≈ 0.18 µM) |  |  |  |  |  |  |  | 
CCC1OC(=O)CC(O)C(C)C(OC2OC(C)C(OC3CC(C)(O)C(OC(=O)Cc4cccc5ccccc45)C(C)O3)C(N(C)C)C2O)C(CC=O)CC(C)C(=O)C=CC(C)=CC1COC1OC(C)C(O)C(OC)C1OC (stereo not drawn) [Compound 22, 4"-α-naphthylacetyltylosin] | 12.5 (≈ 11.5 µM) | 25 (≈ 23.1 µM) | 1.56 (≈ 1.44 µM) | 1.56 (≈ 1.44 µM) | 25 (≈ 23.1 µM) | 50 (≈ 46.1 µM) | 1.56 (≈ 1.44 µM) | 0.39 (≈ 0.36 µM) |  |  |  |  |  |  |  | 
CCC1OC(=O)CC(OC(C)=O)C(C)C(OC2OC(C)C(OC3CC(C)(O)C(OC(=O)Cc4cccc5ccccc45)C(C)O3)C(N(C)C)C2O)C(CC=O)CC(C)C(=O)C=CC(C)=CC1COC1OC(C)C(O)C(OC)C1OC (stereo not drawn) [Compound 23, 3-acetyl-4"-α-naphthylacetyltylosin] | 25 (≈ 22.2 µM) | 25 (≈ 22.2 µM) | 0.78 (≈ 0.693 µM) | 0.78 (≈ 0.693 µM) | 50 (≈ 44.4 µM) | 25 (≈ 22.2 µM) | 0.78 (≈ 0.693 µM) | 0.39 (≈ 0.346 µM) |  |  |  |  |  |  |  | 
CCC1OC(=O)CC(OC(C)=O)C(C)C(OC2OC(C)C(OC3CC(C)(O)C(OC(=O)C(OC(C)=O)c4ccccc4)C(C)O3)C(N(C)C)C2O)C(CC=O)CC(C)C(=O)C=CC(C)=CC1COC1OC(C)C(O)C(OC)C1OC [Compound 20, 3-acetyl-4"-L-(α-acetoxyphenylacetyl)tylosin] |  |  |  |  |  |  |  |  | 50 (≈ 44.1 µM) | 100 (≈ 88.2 µM) | 0.78 (≈ 0.688 µM) | 1.56 (≈ 1.38 µM) | 100 (≈ 88.2 µM) | 12.5 (≈ 11 µM) | 1.56 (≈ 1.38 µM) | 0.39 (≈ 0.344 µM)
CCCCCC(=O)OC1C(C)OC(OC2C(C)OC(OC3C(CC=O)CC(C)C(=O)C=CC(C)=CC(COC4OC(C)C(O)C(OC)C4OC)C(CC)OC(=O)CC(O)C3C)C(O)C2N(C)C)CC1(C)O (stereo not drawn) [Compound 7, 4"-n-caproyl(or n-hexanoyl)tylosin] | 12.5 (≈ 12.3 µM) | 25 (≈ 24.6 µM) | 0.78 (≈ 0.769 µM) | 0.78 (≈ 0.769 µM) | 12.5 (≈ 12.3 µM) | 6.25 (≈ 6.16 µM) | 0.78 (≈ 0.769 µM) | 0.39 (≈ 0.385 µM) |  |  |  |  |  |  |  | 
4"-thienylacetyltylosin [Compound 30] |  |  |  |  |  |  |  |  | 12.5 | 25 | 0.39 | 0.39 | 25 | 6.25 | 0.39 | 0.19
CCC1OC(=O)CC(OC(C)=O)C(C)C(OC2OC(C)C(OC3CC(C)(O)C(OC(=O)C(Cc4ccccc4)OC(C)=O)C(C)O3)C(N(C)C)C2O)C(CC=O)CC(C)C(=O)C=CC(C)=CC1COC1OC(C)C(O)C(OC)C1OC [Compound 27, 3-acetyl-4"-L-[(α-acetoxy-β-phenyl)propionyl]tylosin] | 50 (≈ 43.5 µM) | 50 (≈ 43.5 µM) | 0.78 (≈ 0.679 µM) | 0.78 (≈ 0.679 µM) | 50 (≈ 43.5 µM) | 25 (≈ 21.8 µM) | 0.78 (≈ 0.679 µM) | 0.39 (≈ 0.34 µM) |  |  |  |  |  |  |  | 
CCC1OC(=O)CC(O)C(C)C(OC2OC(C)C(OC3CC(C)(O)C(O)C(C)O3)C(N(C)C)C2OC(C)=O)C(CC=O)CC(C)C(=O)C=CC(C)=CC1COC1OC(C)C(OC(=O)COc2ccccc2)C(OC)C1OC (stereo not drawn) [Compound 5, 2'-acetyl-4'"-phenoxyacetyltylosin] | 100 (≈ 91.6 µM) | 100 (≈ 91.6 µM) | 0.78 (≈ 0.714 µM) | 0.78 (≈ 0.714 µM) | 100 (≈ 91.6 µM) | 100 (≈ 91.6 µM) | 0.78 (≈ 0.714 µM) | 0.39 (≈ 0.357 µM) |  |  |  |  |  |  |  | 
CCC1OC(=O)CC(O)C(C)C(OC2OC(C)C(OC3CC(C)(O)C(O)C(C)O3)C(N(C)C)C2OC(C)=O)C(CC=O)CC(C)C(=O)C=CC(C)=CC1COC1OC(C)C(OC(=O)C(Cl)(Cl)Cl)C(OC)C1OC (stereo not drawn) [Compound 2, 2'-acetyl-4'"-trichloroacetyltylosin] | 200 (≈ 181 µM) | 100 (≈ 90.6 µM) | 1.56 (≈ 1.41 µM) | 1.56 (≈ 1.41 µM) | 100 (≈ 90.6 µM) | 200 (≈ 181 µM) | 1.56 (≈ 1.41 µM) | 0.39 (≈ 0.353 µM) |  |  |  |  |  |  |  | 
CCC1OC(=O)CC(O)C(C)C(OC2OC(C)C(OC3CC(C)(O)C(O)C(C)O3)C(N(C)C)C2OC(=O)CCl)C(CC=O)CC(C)C(=O)C=CC(C)=CC1COC1OC(C)C(O)C(OC)C1OC (stereo not drawn) [2'-monochloroacetyltylosin, reference compound] | > 200 | 200 (≈ 201 µM) | 1.56 (≈ 1.57 µM) | 1.56 (≈ 1.57 µM) | 200 (≈ 201 µM) | > 200 | 1.56 (≈ 1.57 µM) | 0.39 (≈ 0.393 µM) |  |  |  |  |  |  |  | 
CCC1OC(=O)CC(OC(C)=O)C(C)C(OC2OC(C)C(OC3CC(C)(O)C(OC(=O)C(OC(C)=O)c4ccc(OC(C)=O)cc4)C(C)O3)C(N(C)C)C2O)C(CC=O)CC(C)C(=O)C=CC(C)=CC1COC1OC(C)C(O)C(OC)C1OC (stereo not drawn) [Compound 21, 3-acetyl-4"-[α-acetoxy-(4-acetoxyphenyl)acetyl]tylosin] | 50 (≈ 41.9 µM) | 50 (≈ 41.9 µM) | 0.78 (≈ 0.654 µM) | 0.78 (≈ 0.654 µM) | 50 (≈ 41.9 µM) | 12.5 (≈ 10.5 µM) | 0.78 (≈ 0.654 µM) | 0.39 (≈ 0.327 µM) |  |  |  |  |  |  |  | 
CCCC(C)C(=O)OC1C(C)OC(OC2C(C)OC(OC3C(CC=O)CC(C)C(=O)C=CC(C)=CC(COC4OC(C)C(O)C(OC)C4OC)C(CC)OC(=O)CC(O)C3C)C(O)C2N(C)C)CC1(C)O (stereo not drawn) [Compound 12, 4"-α-methyl-n-valeryltylosin] | 25 (≈ 24.6 µM) | 100 (≈ 98.6 µM) | 1.56 (≈ 1.54 µM) | 1.56 (≈ 1.54 µM) | 25 (≈ 24.6 µM) | 6.25 (≈ 6.16 µM) | 0.78 (≈ 0.769 µM) | 0.39 (≈ 0.385 µM) |  |  |  |  |  |  |  | 
CCCCCCCCCC(=O)OC1C(C)OC(OC2C(C)OC(OC3C(CC=O)CC(C)C(=O)C=CC(C)=CC(COC4OC(C)C(O)C(OC)C4OC)C(CC)OC(=O)CC(O)C3C)C(O)C2N(C)C)CC1(C)O (stereo not drawn) [Compound 10, 4"-n-capryl(or n-decanoyl)tylosin] | 100 (≈ 93.4 µM) | 50 (≈ 46.7 µM) | 1.56 (≈ 1.46 µM) | 1.56 (≈ 1.46 µM) | 100 (≈ 93.4 µM) | 50 (≈ 46.7 µM) | 1.56 (≈ 1.46 µM) | 0.78 (≈ 0.729 µM) |  |  |  |  |  |  |  | 
CCC1OC(=O)CC(OC(C)=O)C(C)C(OC2OC(C)C(OC3CC(C)(O)C(O)C(C)O3)C(N(C)C)C2OC(C)=O)C(CC=O)CC(C)C(=O)C=CC(C)=CC1COC1OC(C)C(O)C(OC)C1OC (stereo not drawn) [3,2'-diacetyltylosin, reference compound] | > 200 | 200 (≈ 200 µM) | 1.56 (≈ 1.56 µM) | 1.56 (≈ 1.56 µM) | 200 (≈ 200 µM) | > 200 | 1.56 (≈ 1.56 µM) | 0.39 (≈ 0.39 µM) |  |  |  |  |  |  |  | 

Source: US4205163A, “Tylosin derivatives” (Sanraku-Ocean Co., Ltd., priority 1977, dated 1980)
